# Data published in patent publication US20040171613A1, “Therapeutic agent for non-immediate type allergic diseases” (JAPAN TOBACCO INC., priority 2001, published 2004).
# Legend:
# [1] = tested on: DNFB-induced allergic dermatitis; experiment: murine DNFB-induced allergic dermatitis model; type: in vivo, mouse
# Method: The model is produced by repeating antigen sensitization and induction in mouse to induce contact dermatitis that involves increase of IgE antibody titer, i.e., inflammation similar to atopic dermatitis (J. Allergy Clin. Immunol., 100 (6Pt2), 39-44, December 1997).
# Furthermore, by dilution, 0.1 mg/mL and 0.01 mg/mL suspensions were prepared. In addition, as positive controls, 0.5 mg/mL, 0.2 mg/mL and 0.1 mg/mL solutions of prednisolone (Sigma) were similarly prepared.
# During the period from the next day of the third antigen application to the next day of the fifth antigen application, 10 mL/kg of the above-described test compound was administered once a day 15 times in total.
# The difference of thickness was used as an index of swelling. FIGS. 1 and 2 show the results of the measurement at the fourth and fifth antigen applications, together with the results of the positive controls.
# 24 hours after the fifth antigen application, the spleen was harvested from the mouse exsanguinated under anesthesia with ether. The wet weight of the spleen was measured.
# human basophils = experiment: leukotriene production from human basophils; type: cell-based; settings: anti-human IgE antibody stimulation; IL-3 preincubation
# Method: To act them on cells, the solutions were further diluted to 10 μM to 0.01 μM (0.1% DMSO solution).
# Using a syringe charged with 3.8% sodium citrate solution, 100 mL blood was obtained from human blood.
# Using 10× HBSS (−) (10×Hank's balanced salt solution, GIBCO), Percoll (Amersham) and Milli Q water, 1.070 g/mL, 1.079 g/mL and 1.088 g/mL Percoll-HBSS (−) were prepared and layered, and the obtained blood was loaded on the layers and centrifuged at 300× g for 25 minutes. A cell fraction between the 1.070 g/mL Percoll-HBSS (−) layer and the 1.079 g/mL Percoll-HBSS (−) layer was recovered. 3 volumes of HBSS (−) was added to the recovered cell suspension and centrifuged at 300× g at 4° C. for 7 minutes. After centrifugation, the supernatant was discarded and the cells were rinsed once with HBSS (−). Thus recovered cell population was used as the basophils.
# The basophils were prepared to 2.5×10^6 cells/mL with Tyrode solution, and 10 μg/mL recombinant human IL-3 (Genzyme/Techne) was added to a final concentration of 100 ng/mL. Immediately thereafter, 80 μL/well ([…]) of basophils were seeded on a round-bottom 96-well plate and were incubated in 5% CO2 at 37° C. for 30 minutes.
# After preincubation, 10 μL/well of the above-described test compound was added and incubated in 5% CO2 at 37° C. for 10 minutes. […]
# [2] = tested on: rat mast cell line RBL-2H3; experiment: leukotriene production from rat mast cell line; type: cell-based; settings: anti-DNP IgE sensitization, DNP-BSA stimulation; 0.1 to 10 μM
# Method: Then, the resulting solutions were diluted with E-MEM (EAGLE-MEM; Nikken Biomedical Lab.) to prepare solutions of 100 to 1 μM (1% DMSO solution). To act the solutions on cells, they were further diluted to 10 μM to 0.1 μM (0.1% DMSO solution).
# 1 mM PIPES (Dojin Molecular Technologies, Inc.), […], 0.5 mM KCl, 0.06 mM MgCl2, 0.1 mM CaCl2, 0.55 mM glucose and 0.1% BSA (bovine serum albumin; Sigma) were prepared with purified water and then adjusted to pH 7.4 using NaOH.
# 1 mg/mL anti-DNP IgE (monoclonal murine anti-DNP IgE; Yamasa Corp.) was diluted to 1000 fold with the PIPES buffer to prepare a 1 μg/mL solution.
# 10 mg/mL DNP-BSA was diluted to a concentration of 10 μg/mL with the PIPES buffer.
# Culture medium: E-MEM containing heat-inactivated 10% FCS (fetal calf serum; Morgate Biotech), 100 units/mL penicillin and 100 μg/mL streptomycin (in the form of penicillin/streptomycin; GIBCO).
# After centrifuging and washing rat mast cell line RBL-2H3 (Human Science; 1×10^6cells/mL/tube) with the above-described culture medium, the cells were resuspended in the culture medium and cultured in a 75-cm^2 flask (Falcon 353136) for 3 days. […]
# 30 minutes after the antigen stimulation, 20 μL/well supernatant was recovered and the LTs amount was measured according to manufacturer's protocol of LTs EIA kit (Amersham Pharmacia).
# CB1 = CB1 (Homo sapiens, UniProt P21554); settings: from JP-A 2000-256323, Table 33; cited from earlier work
# Sequence of CB1 (P21554 whole entry, species assumed): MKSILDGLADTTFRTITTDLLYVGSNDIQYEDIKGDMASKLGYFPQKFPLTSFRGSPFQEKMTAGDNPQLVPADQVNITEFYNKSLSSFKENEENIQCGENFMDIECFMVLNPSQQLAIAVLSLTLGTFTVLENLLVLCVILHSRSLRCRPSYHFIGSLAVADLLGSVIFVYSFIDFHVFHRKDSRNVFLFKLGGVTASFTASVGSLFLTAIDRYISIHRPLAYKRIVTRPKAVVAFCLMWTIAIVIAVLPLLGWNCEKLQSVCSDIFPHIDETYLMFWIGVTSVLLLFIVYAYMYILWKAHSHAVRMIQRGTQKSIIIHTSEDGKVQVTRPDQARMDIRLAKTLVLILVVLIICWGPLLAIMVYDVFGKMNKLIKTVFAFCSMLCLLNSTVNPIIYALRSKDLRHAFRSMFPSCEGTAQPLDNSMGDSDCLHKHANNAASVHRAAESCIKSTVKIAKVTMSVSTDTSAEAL
smiles,measurement,setting,value
"CCCCCOc1c(OC)ccc2cc(C(=O)NCc3ccc4c(c3)OCO4)c(=O)[nH]c12 [Compound A, N-(benzo[1,3]dioxol-5-ylmethyl)-7-methoxy-2-oxo-8-pentyloxy-1,2-dihydroquinoline-3-carboxamide]",spleen wet weight,"[1]; 24 hours after the fifth antigen application, oral dosing",No decrease of spleen weight
same,ear swelling (increase of the thickness of the ear),"[1]; BALB/c mouse, oral once a day from day after third antigen application, 24 hours after fourth and fifth antigen application",significantly suppressed ear swelling
same,production of leukotrienes (C4/D4/E4),human basophils,suppressive action
same,leukotriene production (C4/D4/E4),[2],suppressive effect
same,IC50,CB1,3.44 µM
